Patent publication US11434205B2, “Substituted imidazole carboxylate derivatives and the use thereof” (priority 2018, dated 2022)
pEC50: −log10 of the molar value. Where two headings read alike, the source gives them in different places.

Columns and labels:
rats [1] = assay type: in vivo, rat; details: rats of the MAP/HR figures, 2×ED50, tail vein; same value in min
Outline: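 Rats implanted with telemetry (left ventricular and abdominal aortic catheters, ECG leads) at least one week before recording; compounds given via lateral tail-vein catheter. MAP and HR sampled every 15 s for 30 min before and after dosing to judge hemodynamic stability.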

rats [2] = assay type: in vivo, rat; details: rats of the MAP/HR figures, 2×ED50, tail vein
rats [3] = test: Loss of righting reflexes (LORR) assay in rats, ED50 by up and down method; assay type: in vivo, rat; details: Rattus norvegicus, tail vein, class symbols
Outline: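 Adult male Sprague-Dawley rats (250-300 g) dosed i.v. via tail vein at 0.1 mL/s. Anesthesia scored as loss of righting reflex lasting >30 s; ED50 derived by up-and-down method.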

[4] = tested on: secretion of cortisol, H295R cell line; test: cells; assay type: cell-based; details: for pEC50: Homo sapiens, NCI-H295R, read-out: EC50 (Cortisol)
Experimental: (§1) The Effects of the Compounds on Adrenocortical Function In Vitro Test
(§2) Then secretion of the cortisol and corticosterone in the supernatant, was measured using HPLC-MS/MS method to determine whether the compounds of the present invention had adrenotoxic potential.

[5] = tested on: secretion of corticosterone, H295R cell line; test: cells; assay type: cell-based; details: for pEC50: Homo sapiens, NCI-H295R, read-out: EC50 (Corticosterone)
Experimental: as §1, §2

rats [6] = tested on: rats
Experimental: Pharmacological Effects of the Compounds on Continuous Infusion in Rats
Adult male Sprague-Dawley rats with body weight ranging from 250 to 300 gm were selected for continuous infusion test. […] Time to recovery of righting reflex from stopping infusion, and time to fully awake from stopping infusion were recorded.

rats [7] = test: Pharmacological characteristics at equivalent doses (2×ED50) in rats; details: 2×ED50, tail vein; for Adverse reactions: Red urine (incidence): DMSO solution (DMSO alone 10/10); for Adverse reactions: Tremor (incidence): animals affected/animals; for Onset time: time of LORR
Outline: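 Adult male Sprague-Dawley rats (250-300 g, n=8) received each drug at twice its ED50 via tail vein (0.6 mL at 0.1 mL/s). Onset of anesthesia taken as time to LORR.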

rats [8] = tested on: rats; remark: listed apart in the source
Experimental: Adult male Sprague-Dawley rats (250-300 g) were selected for the experiment. […] The anesthesia effects of the compounds were assessed in rats using a LORR assay and a period >30 s was considered as an indicator of general anesthesia. Then the up and down method was used to determine 50% effective dose (ED50). The drugs were administered through the tail vein of rats in a volume of 0.6 mL and at a rate of 0.1 mL/s.

[9] = H295R cell line, 0.1-10000 nM, HPLC-MS/MS, Table E3
[10] = continuous tail vein infusion at 2×MIR, LORR maintained 1 hour, Table E4
[11] = emulsion, continuous infusion at 2×MIR
[12] = continuous tail vein infusion at 2×MIR, LORR maintained 1 hour, Table C4

SMILES: CC(=O)C(C)(C)OC(=O)c1c(F)ncn1[C@H](C)c1ccccc1 [Compound E6]
- recovery time of the test animals' righting reflex (rats [1]): 2.90 min
- recovery time of the test animals' righting reflex (rats [2]): 174 s
- ED50 (rats [3]): 0.5 to 1 mg/kg
- Cortisol as an indicator to determine the presence of inhibition [4, 9]: 0
- pEC50 [4]: < 5.00
- Corticosterone as an indicator to determine the presence of inhibition [5, 9]: 0
- pEC50 [5]: < 5.00
- Onset time (rats [6]; [10]): 2 to 3 min
- Recovery time after stopping infusion (rats [6]; [10]): 9 to 11 min
- Types and incidence of adverse reactions (rats [6]; [10]): Tremor (4/6)
- Righting reflex duration (rats [7]): 2.73 ± 1.08 min
- Adverse reactions: Red urine (incidence) (rats [7]): urine (8/8)
- Adverse reactions: Tremor (incidence) (rats [7]): (1/8), Red
- Onset time (rats [7]): 0.13 ± 0.04 min
- Approximate therapeutic index (rats [8]): >24
- Minimal lethal dose (rats [8]): >10 mg/kg

SMILES: CCC1(COC(=O)c2cncn2[C@H](C)c2ccccc2)COC1 [Compound B9]
- recovery time of the test animals' righting reflex (rats [1]): 1.82 min
- recovery time of the test animals' righting reflex (rats [2]): 109 s
- ED50 (rats [3]): 0.5 to 1 mg/kg
- Cortisol as an indicator to determine the presence of inhibition ([4]; H295R, Table B3): 0
- pEC50 [4]: < 5.00
- Corticosterone as an indicator to determine the presence of inhibition ([5]; H295R, Table B3): 0
- pEC50 [5]: < 5.00
- Recovery time after stopping infusion (rats [6]; after 1 hour infusion at 2×MIR): 10 to 13 min
- Adverse reactions: Restlessness (incidence) (rats [6]; continuous infusion 2×MIR): 2/6
- Adverse reactions: Tremor (incidence) (rats [6]; continuous infusion 2×MIR): 1/6
- Onset time (rats [6]; [11]): 2 to 3 min
- Adverse reactions: Restlessness (incidence) (rats [7]): 1/8
- Righting reflex duration (rats [7]): 1.98 ± 1.21 min
- Adverse reactions: Red urine (incidence) (rats [7]): 8/8
- Onset time (rats [7]): 0.39 ± 0.1 min
- Approximate therapeutic index (rats [8]): >12
- Minimal lethal dose (rats [8]): >18 mg/kg

SMILES: CCCCC(CCCC)OC(=O)c1cncn1[C@H](C)c1ccccc1 [Compound C25]
- recovery time of the test animals' righting reflex (rats [1]): 2.08 min
- recovery time of the test animals' righting reflex (rats [2]): 125 s
- ED50 (rats [3]): 0.1 to 0.5 mg/kg
- Cortisol as an indicator to determine the presence of inhibition ([4]; H295R, Table C3): 0
- pEC50 [4]: < 6.00
- Corticosterone as an indicator to determine the presence of inhibition ([5]; H295R, Table C3): 0
- pEC50 [5]: < 6.00
- Onset time (rats [6]; [12]): 3 to 4 min
- Recovery time after stopping infusion (rats [6]; [12]): 12 to 15 min
- Righting reflex duration (rats [7]): 2.03 ± 1.32 min
- Adverse reactions: Red urine (incidence) (rats [7]): (8/8)
- Adverse reactions: Tremor (incidence) (rats [7]): Tremor (6/8), Red urine
- Onset time (rats [7]): 0.72 ± 0.20 min
- Approximate therapeutic index (rats [8]): >10
- Minimal lethal dose (rats [8]): >4 mg/kg

SMILES: C[C@H](c1ccccc1)n1cncc1C(=O)OCC1CC(F)(F)C1 [Compound A12]
- recovery time of the test animals' righting reflex (rats [1]): 4.23 min
- recovery time of the test animals' righting reflex (rats [2]): 254 s
- ED50 (rats [3]): 0.5 to 1 mg/kg
- Cortisol as an indicator to determine the presence of inhibition ([4]; H295R, Table A3): 0
- pEC50 [4]: < 6.00
- Corticosterone as an indicator to determine the presence of inhibition ([5]; H295R, Table A3): 0
- Recovery time after stopping infusion (rats [6]; after 1 hour infusion at 2×MIR): 13 to 16 min
- Adverse reactions: Tremor (incidence) (rats [6]; continuous infusion 2×MIR): Tremor (4/6)
- Onset time (rats [6]; [11]): 3 to 4 min
- Adverse reactions: Restlessness (incidence) (rats [7]): Restlessness (2/8), Red urine
- Righting reflex duration (rats [7]): 4.04 ± 1.65 min
- Adverse reactions: Red urine (incidence) (rats [7]): (8/8)
- Onset time (rats [7]): 0.16 ± 0.06 min
- Approximate therapeutic index (rats [8]): >16
- Minimal lethal dose (rats [8]): >10 mg/kg

SMILES: CCC(CC)OC(=O)c1cncn1[C@H](C)c1ccccc1 [Compound C24]
- recovery time of the test animals' righting reflex (rats [1]): 2.25 min
- recovery time of the test animals' righting reflex (rats [2]): 135 s
- ED50 (rats [3]): 0.01 to 0.1 mg/kg
- Cortisol as an indicator to determine the presence of inhibition ([4]; H295R, Table C3): 0
- pEC50 [4]: < 6.00
- Corticosterone as an indicator to determine the presence of inhibition ([5]; H295R, Table C3): 0
- pEC50 [5]: < 6.00
- Onset time (rats [6]; [12]): 3 to 4 min
- Recovery time after stopping infusion (rats [6]; [12]): 9 to 13 min
- Types and incidence of adverse reactions (rats [6]; [12]): Tremor (1/6)
- Adverse reactions: Convulsions (incidence) (rats [7]): Convulsions (1/8), Red
- Righting reflex duration (rats [7]): 2.21 ± 1.28 min
- Adverse reactions: Red urine (incidence) (rats [7]): urine (8/8)
- Onset time (rats [7]): 0.49 ± 0.15 min
- Approximate therapeutic index (rats [8]): >11
- Minimal lethal dose (rats [8]): >1 mg/kg

SMILES: C[C@H](c1ccccc1)n1cncc1C(=O)OCC1(C)COC1 [Compound B5]
- recovery time of the test animals' righting reflex (rats [1]): 4.25 min
- recovery time of the test animals' righting reflex (rats [2]): 255 s
- ED50 (rats [3]): 0.1 to 0.5 mg/kg
- Cortisol as an indicator to determine the presence of inhibition ([4]; H295R, Table B3): 0
- pEC50 [4]: < 6.00
- Corticosterone as an indicator to determine the presence of inhibition ([5]; H295R, Table B3): 0
- pEC50 [5]: < 5.00
- Recovery time after stopping infusion (rats [6]; after 1 hour infusion at 2×MIR): 12 to 14 min
- Adverse reactions: Tremor (incidence) (rats [6]; continuous infusion 2×MIR): Tremor (2/6)
- Onset time (rats [6]; [11]): 3 to 4 min
- Righting reflex duration (rats [7]): 3.98 ± 1.34 min
- Adverse reactions: Red urine (incidence) (rats [7]): Red urine (8/8)
- Onset time (rats [7]): 0.11 ± 0.02 min
- Approximate therapeutic index (rats [8]): >11
- Minimal lethal dose (rats [8]): >10 mg/kg

SMILES: C[C@H](c1ccccc1)n1cncc1C(=O)OC(C)(C)C [Compound C18]
- recovery time of the test animals' righting reflex (rats [1]): 1.92 min
- recovery time of the test animals' righting reflex (rats [2]): 115 s
- ED50 (rats [3]): 0.1 to 0.5 mg/kg
- Cortisol as an indicator to determine the presence of inhibition ([4]; H295R, Table C3): 0
- pEC50 [4]: < 6.00
- Corticosterone as an indicator to determine the presence of inhibition ([5]; H295R, Table C3): 0
- pEC50 [5]: < 6.00
- Onset time (rats [6]; [12]): 3 to 4 min
- Recovery time after stopping infusion (rats [6]; [12]): 10 to 14 min
- Types and incidence of adverse reactions (rats [6]; [12]): Tremor (1/6)
- Righting reflex duration (rats [7]): 1.96 ± 1.39 min
- Adverse reactions: Red urine (incidence) (rats [7]): (8/8)
- Adverse reactions: Tremor (incidence) (rats [7]): Tremor (5/8), Red urine
- Onset time (rats [7]): 0.25 ± 0.13 min
- Approximate therapeutic index (rats [8]): >14
- Minimal lethal dose (rats [8]): >5 mg/kg
